In ChEMBL document CHEMBL1201862, “PubChem BioAssay data set” (2004):
Activity calls are given as the source filed them.

Columns and labels:
Cytochrome P450 3A4 = Cytochrome P450 3A4 (Homo sapiens, UniProt P08684);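 further: CYP3A4 tested as one member of a cytochrome P450 panel screen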
[1] = test system: Streptococcus sp. 'group A'; assay: Streptococcus pyogenes SK(-)GAS viability under kanamycin – luminescence, BacTiterGlo, confirmation, counter-screen for streptokinase expression inhibitor project, dose response (AID 1900); format: functional, organism-based
Streptococcus = assay: GAS UMAA2166 growth inhibition – luminescence, BacTiterGlo, counter-screen for streptokinase expression inhibitor project, dose response (AID 1915); format: functional, organism-based;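 further: potency for reduction of bacterial viability or growth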
[2] = molecular target: T1, Type-1 angiotensin II receptor (Homo sapiens, UniProt P30556); assay: antagonism of angiotensin II type 1 receptor – cell-based, uHTS hits, selectivity assay for APJ receptor antagonist project, dose response (AID 463214); format: functional;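 further: antagonist potency against angiotensin II stimulated AT1 response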
T1 sequence (P30556 whole entry): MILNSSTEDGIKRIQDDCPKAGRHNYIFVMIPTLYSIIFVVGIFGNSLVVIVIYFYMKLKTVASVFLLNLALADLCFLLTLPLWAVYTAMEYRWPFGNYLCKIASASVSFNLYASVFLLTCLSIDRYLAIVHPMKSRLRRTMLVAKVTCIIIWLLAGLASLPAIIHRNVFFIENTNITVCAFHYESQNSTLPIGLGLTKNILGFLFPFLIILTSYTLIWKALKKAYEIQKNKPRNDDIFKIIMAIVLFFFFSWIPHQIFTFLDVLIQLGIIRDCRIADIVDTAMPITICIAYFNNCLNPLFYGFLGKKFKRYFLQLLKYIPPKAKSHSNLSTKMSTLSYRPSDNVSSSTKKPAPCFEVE

Streptokinase A = molecular target: T2, Streptokinase A (Streptococcus pyogenes serotype M1, UniProt P10520); assay: viability-normalized secreted streptokinase activity reduction – plasminogen activation absorbance, OD405, dose response (AID 1914); format: functional, Streptococcus pyogenes M1 GAS;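 further: secreted streptokinase activity via plasminogen activation per viability signal from cell pellet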
T2 sequence (P10520 whole entry): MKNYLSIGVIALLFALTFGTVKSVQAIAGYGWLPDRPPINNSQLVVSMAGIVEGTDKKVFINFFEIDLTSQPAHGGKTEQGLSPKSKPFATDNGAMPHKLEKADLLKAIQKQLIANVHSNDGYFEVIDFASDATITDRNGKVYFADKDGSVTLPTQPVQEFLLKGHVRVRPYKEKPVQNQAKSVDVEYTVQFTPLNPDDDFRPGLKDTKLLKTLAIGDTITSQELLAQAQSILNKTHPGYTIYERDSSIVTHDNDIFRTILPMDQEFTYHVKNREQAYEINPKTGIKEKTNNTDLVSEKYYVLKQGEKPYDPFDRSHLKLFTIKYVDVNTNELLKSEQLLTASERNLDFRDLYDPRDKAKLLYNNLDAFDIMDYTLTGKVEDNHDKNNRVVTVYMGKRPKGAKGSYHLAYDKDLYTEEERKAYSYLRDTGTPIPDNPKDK

[3] = reduction of Shn3 3'UTR-driven luciferase in osteoblasts – cell-based, Clone20 osteoblasts, firefly luciferase, cherry-picked, dose response (AID 624132); format: functional;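 further: firefly luciferase luminescence from reporter carrying the Shn3 3'UTR in osteoblasts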
[4] = loss of viability in HepG2 cells – cell-based, CellTiter-Glo, cherry-picked, cytotoxicity control for Shn3 inhibitor project, dose response (AID 624134); format: functional
[5] = alpha-synuclein stem-loop luciferase translation blockers – H4 neuroglioma cells, luminescence, confirmation (AID 1988); format: functional, cell-based
[6] = luciferase reporter signal suppression in cells – H4 neuroglioma cells, luminescence, dose response (AID 1990); format: functional, cell-based
[7] = non-specific 3'UTR reporter inhibition in Clone20-Shn3RL – cell-based, Renilla luciferase, cherry-picked, counter-screen for Shn3 inhibitor project, dose response (AID 624133); format: functional
Beta-galactosidase = Beta-galactosidase (Escherichia coli, UniProt Q8VNN2); assay: PubChem AID 485352; format: functional
Beta-galactosidase, sequence (Q8VNN2 whole entry): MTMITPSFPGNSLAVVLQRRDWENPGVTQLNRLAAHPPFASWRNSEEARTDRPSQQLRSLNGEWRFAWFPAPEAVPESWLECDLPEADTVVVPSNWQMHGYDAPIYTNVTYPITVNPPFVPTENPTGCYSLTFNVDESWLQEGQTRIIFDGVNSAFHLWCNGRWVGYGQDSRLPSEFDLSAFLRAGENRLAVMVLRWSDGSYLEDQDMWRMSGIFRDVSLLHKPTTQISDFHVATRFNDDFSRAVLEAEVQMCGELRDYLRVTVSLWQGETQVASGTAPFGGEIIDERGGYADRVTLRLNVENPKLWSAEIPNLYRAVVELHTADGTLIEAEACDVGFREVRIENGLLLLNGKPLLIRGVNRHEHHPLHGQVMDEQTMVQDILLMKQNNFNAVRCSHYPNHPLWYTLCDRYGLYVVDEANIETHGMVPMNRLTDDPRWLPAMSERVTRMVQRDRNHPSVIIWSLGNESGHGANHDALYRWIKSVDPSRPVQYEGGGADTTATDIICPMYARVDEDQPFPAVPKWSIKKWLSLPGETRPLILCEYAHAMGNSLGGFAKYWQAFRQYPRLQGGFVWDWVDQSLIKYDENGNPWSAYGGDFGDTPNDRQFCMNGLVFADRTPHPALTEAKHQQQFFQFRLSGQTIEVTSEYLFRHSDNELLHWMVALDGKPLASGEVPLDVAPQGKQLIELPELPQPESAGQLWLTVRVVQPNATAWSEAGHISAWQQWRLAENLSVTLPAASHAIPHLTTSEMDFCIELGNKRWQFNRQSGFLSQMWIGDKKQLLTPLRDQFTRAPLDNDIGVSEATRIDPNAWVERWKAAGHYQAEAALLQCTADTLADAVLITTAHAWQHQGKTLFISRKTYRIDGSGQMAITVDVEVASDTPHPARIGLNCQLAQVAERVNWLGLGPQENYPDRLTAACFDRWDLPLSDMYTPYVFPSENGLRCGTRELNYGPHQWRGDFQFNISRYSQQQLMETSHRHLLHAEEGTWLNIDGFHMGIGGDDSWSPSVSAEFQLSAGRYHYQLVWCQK

[8] = Luminescence Cell-Based Dose Response HTS to Identify Inhibitors of 5'UTR Stem-Loop Driven Prion Protein mRNA Translation in H4 Neuroglioblastoma Cells. [Related pubchem assays: 1827 (Project Summary), 1813 (Primary HTS)]; format: functional
[9] = molecular target: T3, Nucleotide-binding oligomerization domain-containing protein 1 (Homo sapiens, UniProt Q9Y239); assay: blockers of NOD1 pathway activity – revised, SAR follow-up (AID 2333); format: functional
T3 sequence (Q9Y239 whole entry): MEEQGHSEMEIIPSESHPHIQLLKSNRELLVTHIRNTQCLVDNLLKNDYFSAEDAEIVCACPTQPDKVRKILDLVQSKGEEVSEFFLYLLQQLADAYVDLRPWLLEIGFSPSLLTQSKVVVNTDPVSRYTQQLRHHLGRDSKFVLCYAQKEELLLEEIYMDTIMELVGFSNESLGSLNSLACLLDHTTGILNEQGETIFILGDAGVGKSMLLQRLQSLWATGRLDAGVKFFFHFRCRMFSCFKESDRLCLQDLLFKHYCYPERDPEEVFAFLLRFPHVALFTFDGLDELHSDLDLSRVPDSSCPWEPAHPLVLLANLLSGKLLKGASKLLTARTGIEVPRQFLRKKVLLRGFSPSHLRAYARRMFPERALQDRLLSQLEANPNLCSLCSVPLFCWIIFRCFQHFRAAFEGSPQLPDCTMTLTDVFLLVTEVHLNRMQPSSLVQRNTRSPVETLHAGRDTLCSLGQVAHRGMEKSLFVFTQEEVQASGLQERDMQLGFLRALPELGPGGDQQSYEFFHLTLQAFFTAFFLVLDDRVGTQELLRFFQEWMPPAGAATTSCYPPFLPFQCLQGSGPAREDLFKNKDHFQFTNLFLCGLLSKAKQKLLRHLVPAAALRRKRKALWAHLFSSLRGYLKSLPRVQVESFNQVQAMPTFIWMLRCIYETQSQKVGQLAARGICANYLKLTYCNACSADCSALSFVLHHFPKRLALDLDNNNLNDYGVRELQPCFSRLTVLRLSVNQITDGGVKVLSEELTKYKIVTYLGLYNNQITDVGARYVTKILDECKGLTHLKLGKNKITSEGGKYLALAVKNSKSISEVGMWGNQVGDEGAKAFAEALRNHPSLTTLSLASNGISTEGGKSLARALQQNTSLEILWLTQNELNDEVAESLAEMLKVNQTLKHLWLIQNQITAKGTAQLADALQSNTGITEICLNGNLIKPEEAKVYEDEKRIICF

Tumor necrosis factor = Tumor necrosis factor (Homo sapiens, UniProt P01375); assay: analog potency on TNFa NF-kB signaling – cell-based, revised, SAR follow-up (AID 2337); format: functional
Tumor necrosis factor, sequence (P01375 whole entry): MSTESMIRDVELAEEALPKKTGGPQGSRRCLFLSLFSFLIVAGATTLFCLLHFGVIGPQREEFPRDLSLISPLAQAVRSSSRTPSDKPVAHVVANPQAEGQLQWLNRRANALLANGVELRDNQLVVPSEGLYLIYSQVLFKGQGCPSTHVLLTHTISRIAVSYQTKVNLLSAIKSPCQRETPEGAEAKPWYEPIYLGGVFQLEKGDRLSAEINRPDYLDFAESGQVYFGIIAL

HEK293 [10] = assay: NOD2 signaling inhibitors in MDP-stimulated cells, cell-based, uHTS, luminescence (AID 2001); format: functional; settings: Homo sapiens
HEK293 [11] = assay: cells; format: functional, cell-based; settings: Homo sapiens
HEK293 [12] = assay: cells; format: functional, cell-based; settings: Homo sapiens; remark: listed apart in the source
HEK293 [13] = assay: cells; settings: Homo sapiens
HEK293 [14] = assay: inhibition of NOD1-driven NF-kB reporter – cell-based, luminescence, uHTS, primary screen (AID 1578); format: functional; settings: Homo sapiens
Melanocortin receptor 4 = Melanocortin receptor 4 (Homo sapiens, UniProt P32245); assay: inhibitors of MC4R cAMP signaling – cell-based, TR-FRET, biased antagonists, dose response (AID 602298); format: functional;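 further: antagonist potency against agonist-stimulated cAMP production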
Melanocortin receptor 4, sequence (P32245 whole entry): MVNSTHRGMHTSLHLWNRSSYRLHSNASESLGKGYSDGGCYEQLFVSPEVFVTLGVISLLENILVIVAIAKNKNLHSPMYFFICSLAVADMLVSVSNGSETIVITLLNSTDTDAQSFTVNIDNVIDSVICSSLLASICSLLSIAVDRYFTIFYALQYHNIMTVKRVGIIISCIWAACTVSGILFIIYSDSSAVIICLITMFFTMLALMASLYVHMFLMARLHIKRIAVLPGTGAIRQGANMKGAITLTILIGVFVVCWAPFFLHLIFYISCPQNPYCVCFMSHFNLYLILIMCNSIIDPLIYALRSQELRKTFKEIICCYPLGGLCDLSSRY

[15] = cAMP pathway inhibition in counterscreen cell line – TR-FRET cAMP detection, counter-screen for MC4R biased antagonist project, dose response (AID 602305); format: functional, cell-based;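 further: U2OS cells stimulated with forskolin near its EC80 as the cAMP inducer; potency is for inhibition of forskolin-stimulated cAMP signaling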
HeLa = assay: ATP-based viability loss in HeLa cells – cell-based, CellTiter-Glo luminescence, cherry-pick samples, cytotoxicity control for MITF activator project, dose response (AID 540259); format: functional; settings: Homo sapiens

Cytochrome P450 3A4, sequence (P08684 whole entry): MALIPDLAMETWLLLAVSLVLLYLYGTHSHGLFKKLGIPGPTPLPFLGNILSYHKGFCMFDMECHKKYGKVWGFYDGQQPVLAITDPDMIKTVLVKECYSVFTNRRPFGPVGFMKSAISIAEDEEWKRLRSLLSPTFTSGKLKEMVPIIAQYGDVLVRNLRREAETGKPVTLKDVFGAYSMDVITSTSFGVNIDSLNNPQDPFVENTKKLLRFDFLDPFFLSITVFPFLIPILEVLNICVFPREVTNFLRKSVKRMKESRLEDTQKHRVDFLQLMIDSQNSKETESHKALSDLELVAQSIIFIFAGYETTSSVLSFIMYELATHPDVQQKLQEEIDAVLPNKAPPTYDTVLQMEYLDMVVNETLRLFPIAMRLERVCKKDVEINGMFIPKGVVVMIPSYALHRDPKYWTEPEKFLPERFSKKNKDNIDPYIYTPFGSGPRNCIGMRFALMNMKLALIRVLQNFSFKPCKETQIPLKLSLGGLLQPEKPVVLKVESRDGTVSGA

With `O=C(c1cnccn1)N1CCC2(CC1)CCN(c1ncccn1)CC2` the AC50 (Cytochrome P450 3A4) was “inconclusive”.
In the case of `Cc1ccc(CS(=O)(=O)c2ncc(Cl)c(C(=O)Nc3ccc(OC(F)F)cc3)n2)cc1`, the EC50 [1] is reported as 8.23 µM (active), the EC50 (Streptococcus) is reported as 22.1 µM (active) and the IC50 [2] is reported as 11.3 µM (active). For the same compound, the EC50 (Streptokinase A) was 2.07 µM (active), the AC50 [3] was 2.34 µM (active) and the AC50 [4] was 61.5 µM (active). The EC50 [5] was 18.1 µM (active), the EC50 [6] was > 120 µM (not active) and the AC50 [7] was 13.5 µM (active). The EC50 (Beta-galactosidase) was > 40 µM (inactive) and the EC50 [8] was 12.7 µM (active).
In the case of `COCC1CCN(C(=O)c2cc(COc3ccc4ncccc4c3)on2)CC1`, the IC50 [9] is reported as 3.13 µM (active), the IC50 (Tumor necrosis factor) is reported as 4.81 µM (active) and the AC50 [3] is reported as 2.7 µM (active). For the same compound, the AC50 [4] was 42.1 µM (active), the IC50 (HEK293 [10]) was 14.8 µM (inactive) and the IC50 (HEK293 [11]) was 8.36 µM (active). The IC50 (HEK293 [12]) was > 20 µM (inactive), the AC50 [7] was 10.5 µM (active) and the IC50 (HEK293 [13]) was > 20 µM (inactive). For the same compound, the EC50 (HEK293 [14]) was 2.31 µM (active).
For `Cc1sc2nc(CN3CCOCC3)nc(Cl)c2c1C`, the IC50 (Melanocortin receptor 4) was > 64.5 µM (inactive) and the IC50 [15] was > 64.5 µM (inactive).
In the case of `CC/C(=N\NC(=O)c1csc(C)c1C)c1cccs1`, the AC50 (HeLa) is reported as > 350 µM (inactive).
With `COc1ccc(C(=O)N2CCC3(CCN(Cc4nccs4)CC3)CC2)cc1` the AC50 (Cytochrome P450 3A4) was “inconclusive”.
